# Key:
# Assay type in all cases: in vivo
# [1] = system: Diamond Back Moth (Plutella xylostella); assay: Insecticidal effect on diamond back moth (Test Example 1): egg-bearing Chinese cabbage seedling immersed in 50 ppm liquid chemical
# Procedure: Adult diamond back moths were released and allowed to oviposit on a Chinese cabbage seedling. Two days after the release, the seedling having the eggs deposited thereon was immersed for about 30 seconds in a liquid chemical prepared by diluting a preparation containing each compound listed in Table 1 or 2 as an active ingredient to adjust the concentration to 50 ppm. After air-dryness, it was allowed to stand in a room thermostated at 25° C. Six days after the immersion, the hatched insects were counted. The mortality was calculated according to the following equation and the insecticidal effect was judged according to the criterion shown below. The test was carried out with triplicate groups of 10 insects. [formula]
# [2] = system: Common Cutworm (Spodoptera litura); assay: Insecticidal effect on common cutworm (Test Example 2): cabbage leaf piece immersed in 50 ppm liquid chemical; conditions: common cutworm (Spodoptera litura) second-instar larvae, 8 days after inoculation, 25° C.
# Procedure: A piece of cabbage leaf (cultivar: Shikidori) was immersed for about 30 seconds in a liquid chemical prepared by diluting a preparation containing each compound listed in Table 1 or 2 as an active ingredient to adjust the concentration to 50 ppm. After air-dryness, it was placed in a plastic Petri dish with a diameter of 9 cm and inoculated with second-instar larvae of common cutworm, after which the dish was closed and then allowed to stand in a room thermostated at 25° C. Eight days after the inoculation, the dead and alive were counted. The mortality was calculated according to the following equation and the insecticidal effect was judged according to the criterion shown in Test Example 1. The test was carried out with triplicate groups of 10 insects. [formula]
# [3] = system: Smaller Tea Tortrix (Adoxophyes sp.); assay: Insecticidal effect on smaller tea tortrix (Test Example 3): tea leaves immersed in 50 ppm liquid chemical; conditions: smaller tea tortrix (Adoxophyes sp.) larvae, 8 days after inoculation, 25° C., humidity 70%
# Procedure: Tea leaves were immersed for about 30 seconds in a liquid chemical prepared by diluting a preparation containing each compound listed in Table 1 or 2 as an active ingredient to adjust the concentration to 50 ppm. After air-dryness, the tea leaves were placed in a plastic Petri dish with a diameter of 9 cm and inoculated with larvae of smaller tea tortrix, after which the dish was allowed to stand in a room thermostated at 25° C. and having a humidity of 70%. Eight days after the inoculation, the dead and alive were counted and the insecticidal effect was judged according to the criterion shown in Test Example 1. The test was carried out with triplicate groups of 10 insects.
Structure (SMILES),"Insecticidal effect (mortality grade), Test Example 1 [1]","Insecticidal effect (mortality grade), Test Example 2 [2]","Insecticidal effect (mortality grade), Test Example 3 [3]"
Cc1cc(C(F)(C(F)(F)F)C(F)(F)F)ccc1NC(=O)c1cccc(Br)c1C(=O)NC(C)CS(=O)(=O)NCc1ccccc1 (stereo not drawn) [1-218],A (Mortality 100%),A (Mortality 100%),A (Mortality 100%)
CCSCCNS(=O)(=O)CC(C)(C)NC(=O)c1c(I)cccc1C(=O)Nc1ccc(C(F)(C(F)(F)F)C(F)(F)F)cc1C [1-84],A (Mortality 100%),A (Mortality 100%),A (Mortality 100%)
Cc1cc(C(F)(C(F)(F)F)C(F)(F)F)ccc1NC(=O)c1cccc(I)c1C(=O)NC(C)(C)CS(=O)(=O)NCCSc1ccccc1 [1-87],A (Mortality 100%),A (Mortality 100%),A (Mortality 100%)
CCNS(=O)(=O)CC(C)NC(=O)c1ccccc1C(=O)Nc1ccc(C(F)(C(F)(F)F)C(F)(F)F)cc1C (stereo not drawn) [1-207],A (Mortality 100%),A (Mortality 100%),E (Mortality less than 50%)
CCN(Cc1ccccc1)S(=O)(=O)CC(C)NC(=O)c1c(I)cccc1C(=O)Nc1ccc(C(F)(C(F)(F)F)C(F)(F)F)cc1C (stereo not drawn) [1-43],A (Mortality 100%),A (Mortality 100%),A (Mortality 100%)
Cc1cc(C(F)(C(F)(F)F)C(F)(F)F)ccc1NC(=O)c1cccc(I)c1C(=O)NC(C)(C)CS(=O)(=O)NCCO [1-78],A (Mortality 100%),E (Mortality less than 50%),A (Mortality 100%)
Cc1cc(C(F)(F)C(F)(F)F)ccc1NC(=O)c1cccc(I)c1C(=O)NC(C)(C)CS(=O)(=O)NCCS(C)(=O)=O [1-306],A (Mortality 100%),A (Mortality 100%),A (Mortality 100%)
Cc1cc(C(F)(C(F)(F)F)C(F)(F)F)ccc1NC(=O)c1cccc(I)c1C(=O)NC(C)CS(=O)(=O)Nc1cccc(F)c1 (stereo not drawn) [1-109],A (Mortality 100%),E (Mortality less than 50%),A (Mortality 100%)
CCN(CC)S(=O)(=O)CC(C)NC(=O)c1c(I)cccc1C(=O)Nc1ccc(C(F)(F)C(F)(F)F)cc1C (stereo not drawn) [1-301],A (Mortality 100%),A (Mortality 100%),A (Mortality 100%)
CSc1ccc(NS(=O)(=O)CC(C)NC(=O)c2c(I)cccc2C(=O)Nc2ccc(C(F)(C(F)(F)F)C(F)(F)F)cc2C)cc1 (stereo not drawn) [1-112],A (Mortality 100%),E (Mortality less than 50%),E (Mortality less than 50%)
COc1ccccc1NS(=O)(=O)CC(C)NC(=O)c1c(I)cccc1C(=O)Nc1ccc(C(F)(C(F)(F)F)C(F)(F)F)cc1C (stereo not drawn) [1-108],A (Mortality 100%),A (Mortality 100%),A (Mortality 100%)
Cc1cc(C(F)(C(F)(F)F)C(F)(F)F)ccc1NC(=O)c1cccc(I)c1C(=O)NC(C)CS(=O)(=O)N1CCS(=O)(=O)CC1 (stereo not drawn) [1-57],A (Mortality 100%),A (Mortality 100%),A (Mortality 100%)
Cc1cc(C(F)(C(F)(F)F)C(F)(F)F)ccc1NC(=O)c1cccc(I)c1C(=O)NC(C)CS(=O)(=O)Nc1ccccc1 (stereo not drawn) [1-106],A (Mortality 100%),E (Mortality less than 50%),E (Mortality less than 50%)

# Reference: patent publication US7161032B2, “Sulfonamide derivatives, insecticides for agricultural and horticultural use, and usage thereof” (Nihon Nohyaku Co., Ltd., priority 2002, dated 2007)
